EP3603649A1 (priority 2018, dated 2020)

Target: PrP^res (Homo sapiens, UniProt P04156)
Type: cell-based

Structure (SMILES): COC[C@H]1O[C@@H]2O[C@H]3[C@H](O)[C@@H](OC)[C@@H](O[C@H]4[C@H](O)[C@@H](OC)[C@@H](O[C@H]5[C@H](O)[C@@H](OC)[C@@H](O[C@H]6[C@H](O)[C@@H](OC)[C@@H](O[C@H]7[C@H](O)[C@@H](OC)[C@@H](O[C@H]8[C@H](O)[C@@H](OC)[C@@H](O[C@H]1[C@H](O)[C@H]2OC)O[C@@H]8COC)O[C@@H]7COC)O[C@@H]6COC)O[C@@H]5COC)O[C@@H]4COC)O[C@@H]3COC [DIMEB, heptakis(2,6-O-dimethyl)beta-cyclodextrin]
- PrP^Sc accumulation: significantly decreased
